# In the supplement of paper PMC8671470:
# How the values were obtained:
# Assay in all cases: cell viability (% survival relative to DMSO control, bortezomib = 0%); higher = less cytotoxic
# Details in all cases: 72 h
# [1] = tested on: NOMO-1
# In short: (§1)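 Seeding density for each of the 10 AML and 5 CML cell lines was titrated to the linear growth range. Cells went into 384-well plates pre-printed in duplicate with compounds at 1, 10, 100, 1000 or 10000 nM and were held for 72 h at 37 °C with 5% CO2. CellTiter-Glo luminescence then provided the readout. Percent survival is expressed relative to vehicle at 100% and a 10 µM positive control at 0%, averaged over duplicates.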
# [2] = tested on: HEL
# In short: as §1
# [3] = tested on: LAMA-84
# In short: as §1
# [4] = tested on: SHI-1
# In short: as §1
SMILES,cell viability ([1]; 1 nM) [%],cell viability ([1]; 10 nM) [%],cell viability ([1]; 100 nM) [%],cell viability ([1]; 1000 nM) [%],cell viability ([1]; 10000 nM) [%],cell viability ([2]; 1 nM) [%],cell viability ([2]; 10 nM) [%],cell viability ([2]; 100 nM) [%],cell viability ([2]; 1000 nM) [%],cell viability ([2]; 10000 nM) [%],cell viability ([3]; 1 nM) [%],cell viability ([3]; 10 nM) [%],cell viability ([3]; 100 nM) [%],cell viability ([3]; 1000 nM) [%],cell viability ([3]; 10000 nM) [%],cell viability ([4]; 1 nM) [%],cell viability ([4]; 10 nM) [%],cell viability ([4]; 100 nM) [%],cell viability ([4]; 1000 nM) [%],cell viability ([4]; 10000 nM) [%]
CC12CCC(O)CC1CCC1C2CCC2(C)C(C3=CC(=O)OC3)CCC12O (stereo not given) [Digitoxigenin],110,96,109,11.3,-1.17,102,99.1,103,1.26,-1.18,109,105,84.6,6.05,0.855,108,108,103,4.47,-0.733
C1CCc2nnc(C34CC5CC(CC(C5)C3)C4)n2CC1 [MERCK-544],102,95.8,89.3,97.4,109,104,106,95.2,92.4,132,102,94.5,91.9,92.9,101,90.2,110,104,90.2,118
Cc1c(-c2ccccc2)oc2c(C(=O)OCCN3CCCCC3)cccc2c1=O.Cl [Flavoxate],93.8,105,99.3,97.1,99.6,91,105,107,95.3,100,98,102,97.6,101,101,94.8,99.6,97.6,98.4,101
CCCc1nn(C)c2c(O)nc(-c3cc(S(=O)(=O)N4CCN(C)CC4)ccc3OCC)nc12 [Sildenafil],86.9,104,93.2,96.8,94.9,96.8,115,100,108,122,91.3,98.8,92.1,95,103,103,95,104,111,114
C[C@]12CC[C@H](O)CC1=CC[C@@H]1[C@@H]2CC[C@]2(C)C(c3cccnc3)=CC[C@@H]12 [Abiraterone],106,104,97.6,112,108,113,109,110,112,111,105,106,94.1,102,108,119,108,106,108,112
C#Cc1cnc(O)nc1O [Eniluracil],96.4,103,101,104,109,100,92.2,118,90.1,106,100,102,107,109,104,97.7,106,114,103,102
Cc1coc2c1C(=O)C(=O)c1c-2ccc2c(C)cccc12 [Tanshinone I],111,103,97.3,98.6,91.5,121,97.3,107,106,92.7,104,105,101,108,95.4,110,88.4,108,105,84.2
c1ccc2c(c1)OCC(=C1NCCN1)O2 [Idazoxan],98.9,104,94.4,92.2,89.3,96.4,112,85.6,95.1,90.4,101,98.4,89,96.5,93,105,103,89.8,101,95.1
Clc1ccc2c(c1Cl)CNCC2,95.4,100,101,102,90.9,100,111,90.9,107,82.4,98.6,105,93.7,110,94.4,116,122,110,112,96.1
CCOC(=O)[C@H]1O[C@@H]1C(=O)N[C@@H](CC(C)C)C(=O)NCCC(C)C [Aloxistatin],96.2,109,100,96.2,24.4,111,102,106,96.2,88.2,93.7,101,101,101,98.6,102,92.6,104,102,92.5
Cc1noc2c1-c1ccccc1C(c1ccc(Cl)cc1)=N[C@H]2CC(N)=O [CPI-0610],102,96.3,79,33.6,11.7,103,98.5,114,74.5,18.5,107,92.3,98.4,67.2,33.6,105,94.5,88.8,44.4,21.8
Sc1ncnc2nc[nH]c12 [6-mercaptopurine],108,86.7,88.6,41.5,30.5,96.5,98.2,95.6,70.6,7.42,102,86.6,87.9,55.3,12.6,113,98.6,102,66.2,32.6
O=c1c2ccccc2[se]n1-c1ccccc1 [Ebselen],93.7,103,97.3,94.3,102,102,97.3,106,96.5,81.8,93.3,97.1,95.5,92.1,101,107,96.5,106,92.6,88.6
CN(C/C=C/C#CC(C)(C)C)Cc1cccc2ccccc12 [Terbinafine],99.3,101,96.7,103,96.9,101,91.1,110,96.8,96.6,104,97.7,110,101,93.9,99.4,101,108,99.5,98.9
OCCN1CCN(CCCN2c3ccccc3Sc3ccc(Cl)cc32)CC1 [Perphenazine],112,93.1,106,108,56.9,120,107,90.1,108,107,105,103,93.5,97.2,47.6,100,110,97.1,123,55.2
O=C(c1ccc(OCCN2CCCCC2)cc1)c1c(-c2ccc(O)cc2)sc2cc(O)ccc12 [Raloxifene],100,95.8,99.3,100,86.5,90.2,97.7,96.3,98.4,87.4,106,102,94.9,95.5,87.9,97,102,107,110,89.5
Cc1ccc(S(=O)(=O)NC2c3ccccc3Oc3ccccc32)cc1 [AH-7614],102,102,104,97.1,103,107,96.9,103,107,98.9,93.7,98.8,101,95.5,105,105,110,105,97.1,85.5
C[C@]12O[C@H](C[C@]1(O)CO)n1c3ccccc3c3c4c(c5c6ccccc6n2c5c31)CNC4=O [Lestaurtinib],100,92.3,68.1,9.73,0.0124,95.5,90.4,33.2,19.1,4.54,99.6,94.4,34.2,25,0.148,107,97.9,37.1,19.5,0.00197
O=C(O)C(S)=Cc1c[nH]c2ccc(F)cc12,103,97.9,107,116,94.8,102,103,95.4,94,101,96.9,98.2,92.6,102,102,103,97.6,104,102,88.5
O=C(O)CC[C@H](NC(=O)c1ccc([N+](=O)[O-])cc1)C(=O)O [(S)-2-(4-Nitrobenzamido)pentanedioic acid],92.4,95,99.6,105,95.6,89.9,107,94,96.3,90.4,98.8,77.2,99.6,103,100,97.5,107,102,102,93.9
CC(/C=C1\SC(=S)N(CC(=O)O)C1=O)=C\c1ccccc1 [Epalrestat],108,101,93.4,102,103,120,94.8,99.5,95.5,112,104,99.8,82.6,104,99.8,120,100,106,93.5,113
O=C(O)CCc1ccc(NCc2cccc(Oc3ccccc3)c2)cc1 [GW9508],92.8,96.6,108,108,104,112,105,101,109,104,96.8,98.6,108,93.2,106,102,99.4,120,97.8,107
O=P(O)(O)C(O)(Cn1ccnc1)P(=O)(O)O [Zoledronic acid],98.8,101,95.6,103,94.6,90.6,92.7,101,94.9,99.3,99.5,104,100,98.2,99.2,108,116,102,100,104
COc1cc2c(NC3CCN(C)CC3)nc(N3CCCN(C)CC3)nc2cc1OCCCN(C)C [UNC0224],103,111,98.4,95.2,90.4,84.8,114,106,98.3,88.6,91.1,106,96.5,95.9,95.8,91.9,108,102,93.1,73.7
C=CCc1ccc2c(c1O)C(=O)c1ccccc1C2=O [R162],99,92.1,96.2,105,100,104,101,103,106,110,104,97.2,94.7,103,88.7,101,99.7,104,118,101
C1CCC(C(CC2CCCCN2)C2CCCCC2)CC1.O=C(O)/C=C\C(=O)O (stereo not given) [Perhexiline],91.6,82.6,88.7,94.9,25.9,108,82.7,108,91.3,14.1,97.7,89.1,98,97.7,12.3,95,92,103,102,0.332
Nc1ccn([C@@H]2O[C@H](CO)[C@@H](O)[C@@H]2O)c(=O)n1 [Cytarabine],107,105,89.6,78.1,9.44,104,95.2,19.6,-0.409,1.24,93,80.3,38.5,12.9,5,102,92.6,58,14.6,2.46
